Experiment [1] deals with HCT116. The experiment in a line: AC50 cell viability (CellTiter-Glo); higher = less potent. The conditions noted are these: 48 h. (Cellular ATP, detected with luciferase, serves as a proxy for viable cell number.)
The subject of experiment [2] is HCT116. The experiment in a line: efficacy (fitted maximal change in viability relative to DMSO control); higher = less cytotoxic (negative = loss of viability). The conditions noted are these: 48 h.

The results in this text go back to the supplement of paper PMC10290057.

The structures appear in SMILES notation. Structures can show the parent of a compound that is named as a salt.
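Throughout, for AC50 cell viability (CellTiter-Glo): HCT116 colorectal carcinoma cells screened at five concentrations per compound, luminescent viability scaled between DMSO wells and empty wells on each plate, curves fitted per compound.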
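Throughout, for efficacy (fitted maximal change in viability relative to DMSO control): Luminescence-based viability readout, five doses per compound, normalized against on-plate DMSO and empty-well controls, followed by dose-response curve fitting for every drug.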

In the experiment with HCT116 [1], `CCC1CCCCN1C(=O)n1ncc(C(O)(c2ccccc2)c2ccccc2)n1` (stereo not given) [ML226] came in with an AC50 cell viability of 11.8 µM. In the experiment with HCT116 [2], the efficacy was -62.9%.

Compound `CN(C(=O)CNC(=O)/C=C/c1cccc(Cl)c1)C1CC[S+](=O)([O-])CC1` (stereo not given) [ML264] came in with an AC50 cell viability in the experiment with HCT116 [1] of 0.742 µM. In addition, the efficacy in the experiment with HCT116 [2] is -92.4%.

For the compound `Cc1cnc(-c2ccccc2C(C)C)nc1NCc1ccc(-n2ccnn2)cc1` [ML323], the AC50 cell viability in the experiment with HCT116 [1] was found to be 0.118 µM. For the same compound, the efficacy in the experiment on HCT116 [2] is -34.2%.

On to `CN(C)CCCNC(=O)c1ccc(-c2cc(O)c3ncccc3c2)cc1` [ML324], for which the AC50 cell viability with HCT116 [1] turned out to be 14.8 µM. Besides, in the experiment on HCT116 [2], the efficacy is -86.4%.

As to `O=C(NCCCNC(=O)c1cccnc1O)c1cc(-c2ccccc2)on1` [ML327], in the experiment on HCT116 [1], the AC50 cell viability turned out to be 8.33 µM. The efficacy with HCT116 [2] is -62.3%.

`c1ccc(-c2ccc(CNc3nc(-c4ccccn4)nnc3-c3ccccc3)cc2)cc1` [ML-228]: the AC50 cell viability in the experiment with HCT116 [1] is 1.48 µM. Also, the efficacy with HCT116 [2] is -77%.

`Cc1ccc([S+](=O)([O-])Nc2cc(C(F)(F)F)ccc2C(=O)Nc2nc(-c3ccccc3)cs2)cc1` [ML-364] returned an AC50 cell viability in the experiment with HCT116 [1] of 4.17 µM. Further, the efficacy in the experiment with HCT116 [2] is -87%.

In the case of `O=C(CCNC(=O)c1ccc(OC(F)(F)F)cc1)N[C@@H]1CCCc2ccccc21` [ML-390], in the experiment on HCT116 [1], the AC50 cell viability came out at 0.742 µM. Besides, the efficacy with HCT116 [2] was -57.7%.

`C[C@@H](NC(=O)c1ncnc(N)c1Cl)c1ncc(C(=O)Nc2cc(C(F)(F)F)c(Cl)cn2)s1` [MLN 2480]: the AC50 cell viability in the experiment with HCT116 [1] worked out at 13.2 µM. Moreover, in the experiment with HCT116 [2], the efficacy was -95.4%.

As to `N[S+](=O)([O-])OC[C@@H]1C[C@@H](n2ccc3c(N[C@H]4CCc5ccccc54)ncnc32)C[C@@H]1O` [MLN-4924], in the experiment with HCT116 [1], the AC50 cell viability turned out to be 0.235 µM. Further, the efficacy in the experiment on HCT116 [2] is -65.7%.

`OC(=O)C1=CC=C(NC2=NC3=C(C\N=C(/C4=CC(=CC=C34)Cl)C5=C(F)C=CC=C5F)C=N2)C=C1` [MLN-8054] gave an AC50 cell viability in the experiment on HCT116 [1] of 0.332 µM. For the same compound, the efficacy with HCT116 [2] is -38.3%.

Consider `Cn1cc(-c2ccncc2)c(-c2ccc(OCc3ccc4ccccc4n3)cc2)n1` [MP-10], for which, in the experiment on HCT116 [1], the AC50 cell viability is 18.6 µM. Further, the efficacy with HCT116 [2] is -72.4%.

For `COc1cc(N2CCC(O)CC2)ccc1Nc1cc(Nc2ccccc2[S+](=O)([O-])C(C)C)c2cc[nH]c2n1` [MPS1-IN-1], in the experiment on HCT116 [1], the AC50 cell viability amounted to 3.72 µM. The efficacy with HCT116 [2] was -73%.

`COc1ccc([S+](=O)([O-])N2CCc3cccc(-c4ccncc4)c32)cc1` [MPT-0B098] yielded an AC50 cell viability in the experiment with HCT116 [1] of 0.417 µM. Also, the efficacy with HCT116 [2] was -61.1%.

For the compound `COc1cc(C(=O)NC(=N)Nc2ccc(C)c(NC(=O)c3ccc(-c4ccccc4)cc3)c2)cc(OC)c1OC` [MRT-83], the AC50 cell viability in the experiment with HCT116 [1] turned out to be 7.42 µM. The efficacy in the experiment on HCT116 [2] was -47.2%.

On to `COc1ccc([C@@H](O)[C@@H](C)Oc2ccc([C@H]3O[C@H](c4ccc(O[C@H](C)[C@H](O)c5ccc(OC)c(OC)c5)c(OC)c4)[C@H](C)[C@H]3C)cc2OC)cc1OC` [Manassantin A], for which the AC50 cell viability with HCT116 [1] stood at 0.372 µM. Also, the efficacy with HCT116 [2] is -81%.

`CNCCCC12CCC(c3ccccc31)c1ccccc12` [Maprotiline hydrochloride]: the AC50 cell viability in the experiment on HCT116 [1] was 20.9 µM. Further, the efficacy with HCT116 [2] is -93.9%.

With `CNC(=O)[C@@H](NC(=O)[C@H](CC(C)C)[C@H](O)C(=O)NO)C(C)(C)C` [Marimastat], the AC50 cell viability with HCT116 [1] was determined as 20.9 µM. The efficacy in the experiment on HCT116 [2] is -54.3%.

Compound `C[C@@]12OC(=O)[C@@]1(NC(=O)[C@@H]2CCCl)[C@@H](O)[C@H]\3CCC\C=C3` [Marizomib] had an AC50 cell viability in the experiment on HCT116 [1] of 0.118 µM. Besides, the efficacy in the experiment on HCT116 [2] was -92.6%.

Consider `CN(Cc1ccc(/C=C/C(=O)NO)cc1)CC12CC3CC(CC(C3)C1)C2` [Martinostat], for which, in the experiment on HCT116 [1], the AC50 cell viability came to 0.263 µM. In addition, in the experiment on HCT116 [2], the efficacy is -89.7%.

Regarding `Cc1ccc(NC(=O)c2ccc(CN3CCN(C)CC3)cc2)cc1Nc1nc(-c2cccnc2)cs1` [Masitinib], in the experiment on HCT116 [1], the AC50 cell viability worked out at 18.6 µM. Besides, in the experiment on HCT116 [2], the efficacy was -99.1%.

`C[C@H](Cc1ccc(O)c(O)c1)[C@@H](C)Cc1ccc(O)c(O)c1` [Masoprocol] had an AC50 cell viability in the experiment on HCT116 [1] of 18.6 µM. For the same compound, the efficacy in the experiment on HCT116 [2] is -46.2%.

For `Cc1cccc(CN2CCN(C(c3ccccc3)c3ccc(Cl)cc3)CC2)c1` (stereo not given) [Meclizine hydrochloride], the AC50 cell viability in the experiment on HCT116 [1] came out at 20.9 µM. Besides, the efficacy in the experiment on HCT116 [2] is -43.1%.

For the compound `CCN(CC)CCNC(=O)c1ccc2nc(-c3ccccc3)c(-c3ccc(CN4CCC(n5c(=O)[nH]c6ccccc65)CC4)cc3)nc2c1` [Merck-22-6], in the experiment on HCT116 [1], the AC50 cell viability stood at 8.33 µM. Moreover, the efficacy in the experiment on HCT116 [2] was -99.8%.

As for `C[N]1N=CC2=C1C=C(C(=C2)OC3=CC=C(NC(=O)\C4=C\C=C(\C)N(C4=O)C5=CC=C(F)C=C5)C=C3F)C6=C[NH]N=C6` [Merestinib], the AC50 cell viability in the experiment on HCT116 [1] came to 3.32 µM. The efficacy in the experiment on HCT116 [2] is -41.2%.

The compound `CN(Cc1cnc2nc(N)nc(N)c2n1)c1ccc(C(=O)N[C@@H](CCC(=O)O)C(=O)O)cc1` [Methotrexate] registered an AC50 cell viability with HCT116 [1] of 0.118 µM. For the same compound, the efficacy with HCT116 [2] is -84.4%.

With `CN(C)C1=CC=C(C=C1)C(C2=CC=C(C=C2)N(C)C)=C/3\C=C/C(/C=C3)=[N+](C)C` [Methylrosaniline chloride], the AC50 cell viability with HCT116 [1] came to 0.833 µM. In addition, the efficacy with HCT116 [2] is -84.9%.

In the experiment on HCT116 [1], `COC(=O)/C=C/C(=O)N(O)CCCCNCc1ccc(COC(=O)Nc2cccc3ccccc23)cc1` [Methylstat] displayed an AC50 cell viability of 20.9 µM. In the experiment with HCT116 [2], the efficacy was -84.5%.

Compound `CC[C@H](C)C(=O)O[C@H]1CC\C=C2\C=C/[C@H](C)[C@H](CC[C@@H]3C[C@@H](O)CC(=O)O3)[C@@H]12` [Mevastatin] displayed an AC50 cell viability in the experiment on HCT116 [1] of 14.8 µM. In addition, the efficacy in the experiment with HCT116 [2] is -58.3%.

Consider `Clc1ccc(COC(Cn2ccnc2)c2ccc(Cl)cc2Cl)c(Cl)c1` (stereo not given) [Miconazole nitrate], for which the AC50 cell viability in the experiment on HCT116 [1] came out at 20.9 µM. For the same compound, the efficacy in the experiment with HCT116 [2] was -97.9%.

The compound `CO[C@@H]1[C@H](N(C)C(=O)c2ccccc2)C[C@H]2O[C@]1(C)n1c3ccccc3c3c4c(c5c6ccccc6n2c5c31)C(=O)NC4` [Midostaurin] yielded an AC50 cell viability in the experiment with HCT116 [1] of 1.48 µM. For the same compound, the efficacy in the experiment with HCT116 [2] is -62.7%.

With `CC1(C)CCC2(CC1)N[C@@H](C(=O)N[C@@H]1CC[C@@H](C(N)=O)OC1)[C@H](c1ccnc(Cl)c1F)[C@]21C(=O)Nc2cc(Cl)ccc21` [Milademetan], in the experiment on HCT116 [1], the AC50 cell viability is 4.02 µM. In the experiment with HCT116 [2], the efficacy was -129%.

`CNC(=O)c1nn(C)c2c1C(C)(C)Cc1cnc(Nc3ccc(N4CCN(C)CC4)cc3)nc1-2` [Milciclib] returned an AC50 cell viability in the experiment with HCT116 [1] of 0.525 µM. The efficacy in the experiment with HCT116 [2] was -63.4%.

Regarding `Nc1ncccc1-c1nc2ccc(-c3ccccc3)nc2n1-c1ccc(C2(N)CCC2)cc1` [Miransertib], the AC50 cell viability with HCT116 [1] was 14.8 µM. In addition, the efficacy with HCT116 [2] was -126%.

Consider `O=C1c2c(O)ccc(O)c2C(=O)c2c(NCCNCCO)ccc(NCCNCCO)c21` [Mitoxantrone], for which the AC50 cell viability in the experiment on HCT116 [1] amounted to 1.18 µM. In the experiment with HCT116 [2], the efficacy is -91.4%.
